The source of these data is US7521232B2, “Emissive species for clinical imaging” (ICx Nomadics, Inc., priority 2006, dated 2009).

The series can be described thus: Solubility of isolated product in solvents. It is filed as physicochemical.

Each structure is given as a SMILES string.

As for `OCCOCCOc1cc(I)c(OCCOCCO)cc1I`, the Solubility in hexanes entry (hexanes) was “Not very soluble”. For the same compound, the Solubility in water result (water) is given as “Not very soluble”.

Take `Cc1ccc(S(=O)(=O)OCCOCCOc2cc(I)c(OCCOCCOS(=O)(=O)c3ccc(C)cc3)cc2I)cc1`: the “Solubility in DMF” value (DMF) is on record as “soluble”. Besides, the Solubility in acetone entry (acetone) was “soluble”.
